In patent US20140155445A1, “Compounds and Methods for Treating Cancer and Diseases of the Central Nervous System” (Osta Biotechnologies Inc., priority 2007, published 2014):
Entries after “also recorded” stand apart in the source; their conditions may differ. Where two headings read alike, the source gives them in different places.

Key:
SKMEL-V+ cells [1] = test: Cell proliferation / survival, MTT assay, SKMEL-V+ cells; type: cell-based, human; settings: 6.25 μM to 100 μM, 96 hours
Description: Exponentially growing SKMEL-V+ cells (1×10^3) were seeded in 96-well plates in complete medium. […] Cell survival was evaluated 96 hours later using the MTT metabolic assay (Benlimame N, He Q, Jie S, et al. FAK signaling is critical for ErbB-2/ErbB-3 receptor cooperation for oncogenic transformation and invasion. J Cell Biol 2005; 171: 505-16).

[2] = test system: PC-3 (human prostate carcinoma); test: Prostate carcinoma model PC-3 in SCID mice
Description: • Species and strain: Mouse (Mus musculus); female SCID (MDA231 and OVCAR3), male SCID (PC-3, HCT116); male CD57 B16 mice (BL16-BL6) • Age: 6-8 weeks old. • Supplier: Charles River Laboratories, Inc., St-Constant, Quebec, Canada. • Acclimation: Mice were acclimated to laboratory conditions for approximately 1 week prior to tumor cell inoculation. • Identification: Mice were identified by ear punch combination. • Housing: Mice were housed in groups of 3-5 in a designated animal facility with a temperature of 22° C., a relative humidity of 40-50%, and a 12 hr light/dark cycle.
PC-3 (human prostate carcinoma). These cells were originally received from the ATCC. Early passage cells (tested free of mycoplasma) were grown to 60% confluence in DMEM medium supplemented with 10% fetal bovine serum, and antibiotics. Cell harvesting was performed using trypsin-EDTA solution.
Exponentially growing cells were harvested using trypsin-EDTA solution. […] Cell viability was confirmed by trypan blue staining. […] One to 2 millions cells suspended in 0.1 mL phosphate buffer solution was implanted into the mammary fat pad (MCF7) or subcutaneously into the axillary region of the right flank of recipient SCID mice. All animals were inoculated at the same site.
Mice were subjected to general examination on daily basis. […] Control groups received the vehicle alone. Chemotherapy drugs were also given by intraperitoneal route according to the schedule described below.
Primary tumor growth was monitored every second to fourth day using calipers. Relative tumor volume (cm^3) was determined by the formula:
Body weights were monitored every third to fifth day. Animals experiencing signs of discomfort were sacrificed immediately (in some cases they were replaced by spared mice). […] Mice were sacrificed by cervical dislocation and immediately subjected to full autopsy.

[3] = test system: Panc-1 human pancreatic carcinoma cells; test: Human pancreatic cancer model Panc-1 in SCID mice; type: in vivo; settings: 30 and 60 mg/kg i.p.
Excerpt: Human pancreatic carcinoma cells (“Panc-1 cells”) were originally received from the ATCC (American Type Culture Collection).
Only those cells with >95% viability were used for in-vivo studies.
Once tumors reached a size of approximately 0.7 cm^3, they were removed under sterile condition, sliced into small pieces under a stereo-microscope. Each tissue piece was then reinoculated subcutaneously. Only pieces of approximately the same size and with no signs of necrosis were used.
At the end of the experiment, mice were sacrificed by cervical dislocation and full autopsies were conducted. A picture was taken of tumors from randomly selected mice. The tumors were then fixed in formalin for pathology examination.

[4] = test system: SKMEL 28-V+ cells (human melanoma); test: Melanoma model SKMEL-V+ in SCID mice (combination study); type: in vivo; settings: QC-56 60 mg/kg/ip; Dacarbazine 55 mg/kg
Description: SKMEL 28-V+ cells (human melanoma). These cells were originally from the ATCC and then engineered to overexpress VEGF. […] The cells were tested to be free of mycoplasma.
Control groups received the vehicle alone.

SKMEL-V+ cells [5] = test: Melanoma efficacy study of QC-199, SKMEL-V+ cells s.c. in Scid mice; type: in vivo, human; settings: for reduction of tumor volume vs vehicle: 2 cycles
Description: BD PharMingen, San Diego, Calif.). Cryostat sections were used for CD31 staining. […] Sections were rehydrated in PBS and then blocked with 5% normal goat serum for 1 h. The sections were then incubated overnight at 4° C. with CD31 antibody diluted 1:25 in 3% BSA-PBS. […] Sections were counterstained with Harris' hematoxylin and mounted. Slides were analyzed by conventional light microscopy and photographed using color slides (Eastman Kodak, Rochester, N.Y.). Balb/c Scid mice, 6 week-old, were obtained from Charles River Laboratories, St. Zotique, PQ, Canada. The mice weighed 18-22 g. The experiments were approved by the Animal Care Committee, McGill University, Montreal. The animals were housed in individual cages (4 per cage) and were fed standard rodent chow and water ad libitum. […] When the tumors become palpable (size of a rice), mice weights were measured with a digital balance accurate to 0.05 g. […] For the infusion, mice were anesthetized using isoflurane-based system ([…] COMPACT NRB, 3975-0800-000). For the infusion, a mini pump (NE-1800, New Era Pump Systems, Inc.) was used to infuse the compound via the tail vein during a 2 h period. […] At experiment termination, mice were anesthetized with isoflurane and sacrificed by cervical dislocation. Tumors were dissected and tumor weights were measured using a digital balance.

[6] = Pharmacokinetic evaluation of QC-199 in mouse plasma and brain, IP or oral; type: in vivo; settings: for half-life: from Lambda z; for AUC: read-out: AUCall (0-12); for Cmax: mouse, male CD-1 mice
Description: Regular male CD1 mice, 6 weeks old, were obtained from Charles River Laboratories, St. Zotique, PQ, Canada. The mice weighed 22-28 g. The experiments were approved by the Animal Care Committee, McGill University, Montreal, Quebec. The animals were housed in individual cages and were fed standard rodent chow and water ad libitum. Mice weights were measured with a digital balance accurate to 0.05 g and then received QC-199 at the indicated doses either orally, or via i.p. injections or following i.v. slow infusion. In the case of i.v. injection or i.v. infusion, mice were anesthetized using isoflurane-based system (DISPOMED, MODUFLEX COMPACT NRB, 3975-0800-000). For the infusion, a mini pump (NE-1800, New Era Pump Systems, Inc.) was used to infuse the compound via the tail vein during a 2 h period. In one study, blood and brain tissue samples were collected at various time points after administration of QC-199 using EDTA tubing (Das Original S-Monovette EDTA KE/1.2 ml lot.9094102 and Needle for S-Monovette 22G lot. 8073401) via cardiac puncture and immediately stored at 4° C. Serum was collected after the samples were centrifuged 2200×, 4° C. for 20 minutes and stored at −80° C. until analysis. For the brain tissue collection, skin of mice was removed and brain was carefully dissected out from the skull, transferred into a Petri dish, briefly washed with ice-cold phosphate-buffered saline (PBS), and immediately stored at −80° C. until further analysis.
The assay of QC-199 in mouse plasma and brain samples was carried out using qualified LC/MS/MS assay methods.

Brc1ccc(CCC2(Cn3ccnc3)OCCO2)cc1.Cl [QC-56, 1-((2-(2-(4-Bromophenyl)ethyl)-1,3-dioxolan-2-yl)methyl)-1H-imidazole hydrochloride]
% cell survival (SKMEL-V+ cells [1]): Dose dependent decrease in cell survival
Body Weights (g) d8 (mean + SE) ([2]; PC-3 mice, treatment day 8): 22.30 ± 7.88 g
Body Weights (g) d42 (mean + SE) ([2]; PC-3 mice, treatment day 42): 18.10 ± 7.38 g
inhibition of tumor growth compared to vehicle alone ([2]; QC-56 60 mg/kg/ip, Taxol 10 mg/kg): approximately 25%
anti-tumor activity [3]: not in the pancreatic cancer model Panc-1
inhibition of tumor growth compared to vehicle alone [4]: approximately 42%
tumor size on the day of sacrifice [4]: 1.03±0.16 cm^3
tolerability (50 mg/kg, multiple administrations): well tolerated
toxicity in combination studies (QC-56 60 mg/kg i.p. 4 cycles, chemotherapy drugs i.p.): No apparent toxicity
tolerability (multiple doses up to 100 mg/kg (intraperitoneal, intravenous), hydrochloride): well tolerated with no apparent signs of toxicity; also recorded: well tolerated
tolerability (repeated doses of 30 and 60 mg/kg i.p., SCID mice, hydrochloride): well tolerated at repeated doses of 30 and 60 mg/kg with minor changes in body weights with no apparent toxicity; also recorded: well tolerated
toxic single dose (single intraperitoneal dose, SCID mice): > 100 mg/kg

Brc1ccc(CCCCn2ccnc2)cc1.Cl [QC-199, 1-[4-(4-bromophenyl)butyl]-1H-imidazole hydrochloride]
% cell survival (SKMEL-V+ cells [1]): Dose dependent decrease in cell survival
reduction of tumor volume vs vehicle (SKMEL-V+ cells [5]; 30 mg/kg i.v. infusion, d1, 3, 5 per cycle): 30%
reduction of tumor volume vs vehicle (SKMEL-V+ cells [5]; 60 mg/kg i.v. infusion, d1, 3, 5 per cycle, p less than 0.05): 52%
reduction of tumor volume vs vehicle (SKMEL-V+ cells [5]; 200 mg/kg i.v. infusion, d1, 5 per cycle, p less than 0.01): 69%
reduction of tumor volume vs vehicle (SKMEL-V+ cells [5]; 1000 mg/kg i.v. infusion, d1, 5 per cycle, p less than 0.01): 78%
vascularization of dissected tumors (H&E staining) (SKMEL-V+ cells [5]; QC-199 30-1000 mg/kg): dose dependent reduction in vascularization
% Extrapolated AUC ([6]; brain, IP 60 mg/kg): 13%
AUC(0-inf) ([6]; brain, IP 60 mg/kg): 427 µg·h/g
AUCall (0-12) ([6]; brain, IP 60 mg/kg): 370 µg·h/g
% Extrapolated AUC ([6]; brain, Oral 60 mg/kg): 37%
AUC(0-inf) ([6]; brain, Oral 60 mg/kg): 361 µg·h/g
AUCall (0-12) ([6]; brain, Oral 60 mg/kg): 227 µg·h/g
oral bioavailability ([6]; from oral-to-IP AUC ratios in brain and plasma): moderately high oral bioavailability
concentration at 5 min ([6]; male, CD-1, mouse, brain, 60 mg/kg, IP or oral administration, above the upper calibration range, read-out: brain tissue concentration at 5 min post-dose): > 10000 ng/g
half-life ([6]; male, CD-1, mouse, in vivo, ip, 60 mg/kg, brain, IP 60 mg/kg): 4.3 h
half-life ([6]; male, CD-1, mouse, in vivo, ip, 60 mg/kg, plasma, IP 60 mg/kg): 4.8 h
half-life ([6]; male, CD-1, mouse, in vivo, po, 60 mg/kg, brain, Oral 60 mg/kg): 8.6 h
half-life ([6]; male, CD-1, mouse, in vivo, po, 60 mg/kg, plasma, Oral 60 mg/kg): 7.1 h
Tmax ([6]; male, CD-1, mouse, in vivo, brain, IP 60 mg/kg): 0.167 h
Tmax ([6]; male, CD-1, mouse, in vivo, brain, Oral 60 mg/kg): 0.167 h
AUC(0-inf) ([6]; male, CD-1, mouse, in vivo, plasma, IP 60 mg/kg, read-out: AUC0-inf): 85000 ng·h/mL
AUC ([6]; male, CD-1, mouse, in vivo, plasma, IP 60 mg/kg): 72000 ng·h/mL
AUC(0-inf) ([6]; male, CD-1, mouse, in vivo, plasma, Oral 60 mg/kg, read-out: AUC0-inf): 67000 ng·h/mL
AUC ([6]; male, CD-1, mouse, in vivo, plasma, Oral 60 mg/kg): 47000 ng·h/mL
Cmax ([6]; in vivo, brain, IP 60 mg/kg): 79000 ± 2200 ng/g
Cmax ([6]; in vivo, brain, Oral 60 mg/kg): 39000 ± 2700 ng/g
Cmax ([6]; in vivo, plasma, IP 60 mg/kg): 20000 ± 1200 ng/mL
Cmax ([6]; in vivo, plasma, Oral 60 mg/kg): 9100 ± 800 ng/mL
AUC_%Extrap_obs ([6]; plasma, IP 60 mg/kg): 16%
AUC_%Extrap_obs ([6]; plasma, Oral 60 mg/kg): 30%
